From paper PMC10126264, “Synergistic effect and antibiofilm activity of the antimicrobial peptide K11 with conventional antibiotics against multidrug-resistant and extensively drug-resistant Klebsiella pneumoniae” (Frontiers in Cellular and Infection Microbiology, 2023)
Values after ≈ are worked out from the molar mass of the structure shown. Where two headings read alike, the source gives them in different places. Residues, ends and D or L forms follow the SMILES beside them.

How the values were obtained:
[1] = tested on: K. pneumoniae ATCC 70063
Experimental: (§1) The effects of various cations and serum on the antimicrobial activity of K11 were investigated against K. pneumoniae ATCC 70063 and K. pneumoniae ATCC BAA-1706 by the MIC assay, as described above. For salt stability, 2 mg/mL of K11 was dissolved in solutions containing different salts at their physiological concentrations; NaCl (100, 150, and 200 mM), MgCl2 (0.5, 1 and 2 mM), and FeCl3 (1, 4, and 8 mM), then incubated for 1 h at 37°C. Subsequently, serially 2-fold diluted K11 solutions were prepared in CAMHB, and aliquots of each peptide solution were added to a 96-well plate. An equal volume of bacterial suspension was added, and the mixtures were incubated at 37°C for 20-24 h ([Ko et al., 2019]). For serum stability, 2 mg/mL of K11 was prepared in solution with 25% and 50% FBS and incubated for 1 h at 37°C, then heat […] for 30 min at 60°C. A series of 2-fold dilutions of K11 were performed in CAMHB and transferred to a 96-well plate. The diluted bacterial suspension was added to the well, and mixtures were incubated for 20-24 h at 37°C ([Oliva et al., 2018]). The antimicrobial activity was determined by measuring the MICs.

[2] = tested on: K. pneumoniae ATCC BAA-1706
Experimental: as §1

[3] = ref Jin-Jiang et al., 2012; cited from earlier work
Excerpt: K11 is a synthetic peptide derived from natural AMPs (cecropin A1, melittin, and maganin 2), composed of 20 amino acids ([…]-NH2). […] Moreover, K11 has also been successfully used in vivo as a topic hydrogel solution against Acinetobacter baumannii-infected wounds ([Rishi et al., 2018]).

[4] = tested on: K. pneumoniae reference strains; test: MIC determination, broth microdilution; assay type: cell-based, Klebsiella pneumoniae; conditions: K. pneumoniae reference strains (ATCC BAA-1706, ATCC 70063)
[5] = tested on: MDR/XDR K. pneumoniae clinical isolates; test: microbe, parasite or virus in culture; conditions: for MIC: broth microdilution in CAMHB, 20-24 h at 37°C; for MBC: wells with no visible growth plated on MHA, 37°C, kills at least 99.9% of inoculum
Experimental: The ability of K11 to inhibit bacterial growth was determined by the broth microdilution method ([Clinical and Laboratory Standards Institute, 2018]). Briefly, a series of 2-fold dilutions of K11 were prepared from 1,024 to 2 µg/mL in cation-adjusted Mueller-Hinton broth (CAMHB), Then 50 µL of each peptide dilution was added to each well of polystyrene 96-well U-bottom microplates. The log-phase cultures were adjusted to 0.5 McFarland standard and diluted 1:100 in CAMHB to provide the density of 10^6 CFU/mL. Consequently, 50 µL of diluted bacterial suspension was added to wells containing 50 µL of peptide solution, followed by incubation for 20-24 h at 37°C. […] To evaluate MBC, a volume of 10 μL was taken from each well with no visible growth, inoculated on Mueller-Hinton agar (MHA) plates, and incubated at 37°C. The MBC was defined as the lowest concentration of antimicrobials that killed at least 99.9% of the initial inoculums ([Clinical and Laboratory Standards Institute, 1999]).

[6] = tested on: K. pneumoniae ATCC 70063; remark: listed apart in the source
Experimental: as §1, with “For salt stability, 2 mg/mL of K11 was dissolved in solutions containing different salts at their physiological concentrations; NaCl (100, 150, and 200 mM), MgCl2 (0.5, 1 and 2 mM), and FeCl3 (1, 4, and 8 mM), then incubated for 1 h at 37°C.” left out

[7] = tested on: K. pneumoniae ATCC 70063; remark: listed apart in the source
[8] = K11 2 mg/mL in 25% FBS, 1 h at 37°C, then 30 min at 60°C, then MIC in CAMHB
[9] = K11 2 mg/mL in 50% FBS, 1 h at 37°C, then 30 min at 60°C, then MIC in CAMHB
[10] = MDR/XDR K. pneumoniae clinical isolates

Question: For `CC[C@H](C)[C@H](NC(=O)[C@H](Cc1ccccc1)NC(=O)[C@H](CO)NC(=O)[C@H](CCCCN)NC(=O)[C@H](Cc1c[nH]c2ccccc12)NC(=O)[C@@H](N)CCCCN)C(=O)N[C@@H](CCCCN)C(=O)N[C@@H](CCCCN)C(=O)N[C@@H](CC(C)C)C(=O)N[C@H](C(=O)N[C@@H](CCCCN)C(=O)N[C@@H](CCCCN)C(=O)N[C@@H](Cc1ccccc1)C(=O)N[C@@H](CC(C)C)C(=O)N[C@@H](Cc1c[nH]cn1)C(=O)N[C@@H](CO)C(=O)N[C@@H](C)C(=O)N[C@@H](CCCCN)C(=O)N[C@@H](CCCCN)C(=O)N[C@@H](Cc1ccccc1)C(N)=O)[C@@H](C)O` [K11] (H-KWKSFIKKLTKKFLHSAKKF-NH2), which “Antimicrobial activity MIC” value ([1]; 0% FBS (control)) is on record?
Answer: Its value is 4 µg/mL.

Question: What about the “Antimicrobial activity MIC” value [1, 8] of the same compound?
Answer: Its value is 4 µg/mL.

Question: What about the “Antimicrobial activity MIC” value [1, 9] of the same compound?
Answer: Its value is 4 µg/mL.

Question: And the “Antimicrobial activity MIC” value ([2]; 0% FBS (control))?
Answer: The value was 2 µg/mL.

Question: What about the “Antimicrobial activity MIC” value [2, 8] of the same compound?
Answer: Its value is 2 µg/mL.

Question: And the “Antimicrobial activity MIC” value [2, 9]?
Answer: Its value is 2 µg/mL.

Question: And the hemolytic activity [3]?
Answer: The hemolytic activity was “no hemolytic activity”.

Question: And the “MIC, range over strains” value [4]?
Answer: The value was 2 to 4 µg/mL.

Question: What about the MIC ([5]; KP-01) of the same compound?
Answer: Its MIC is 8 µg/mL (≈ 3.21 µM).

Question: What about the MBC ([5]; KP-01) of the same compound?
Answer: The MBC was 8 µg/mL (≈ 3.21 µM).

Question: What about the MIC ([5]; KP-02) of the same compound?
Answer: The MIC was 64 µg/mL (≈ 25.7 µM).

Question: What about the MBC ([5]; KP-02) of the same compound?
Answer: Its MBC is 64 µg/mL (≈ 25.7 µM).

Question: And the MIC ([5]; KP-03)?
Answer: The MIC was 16 µg/mL (≈ 6.42 µM).

Question: And the MBC ([5]; KP-03)?
Answer: The MBC was 16 µg/mL (≈ 6.42 µM).

Question: What about the MIC ([5]; KP-04) of the same compound?
Answer: Its MIC is 64 µg/mL (≈ 25.7 µM).

Question: And the MBC ([5]; KP-04)?
Answer: Its MBC is 128 µg/mL (≈ 51.3 µM).

Question: What about the MIC ([5]; KP-05) of the same compound?
Answer: The MIC was 8 µg/mL (≈ 3.21 µM).

Question: And the MBC ([5]; KP-05)?
Answer: The MBC was 8 µg/mL (≈ 3.21 µM).

Question: And the MIC ([5]; KP-06)?
Answer: The MIC was 64 µg/mL (≈ 25.7 µM).

Question: What about the MBC ([5]; KP-06) of the same compound?
Answer: Its MBC is 128 µg/mL (≈ 51.3 µM).

Question: What about the MIC ([5]; KP-07) of the same compound?
Answer: The MIC was 16 µg/mL (≈ 6.42 µM).

Question: And the MBC ([5]; KP-07)?
Answer: Its MBC is 16 µg/mL (≈ 6.42 µM).

Question: What about the MIC ([5]; KP-08) of the same compound?
Answer: Its MIC is 64 µg/mL (≈ 25.7 µM).

Question: And the MBC ([5]; KP-08)?
Answer: Its MBC is 128 µg/mL (≈ 51.3 µM).

Question: What about the MIC ([5]; KP-09) of the same compound?
Answer: Its MIC is 64 µg/mL (≈ 25.7 µM).

Question: And the MBC ([5]; KP-09)?
Answer: Its MBC is 128 µg/mL (≈ 51.3 µM).

Question: What about the MIC ([5]; KP-10) of the same compound?
Answer: Its MIC is 64 µg/mL (≈ 25.7 µM).

Question: And the MBC ([5]; KP-10)?
Answer: The MBC was 128 µg/mL (≈ 51.3 µM).

Question: What about the MIC ([5]; KP-11) of the same compound?
Answer: The MIC was 64 µg/mL (≈ 25.7 µM).

Question: What about the MBC ([5]; KP-11) of the same compound?
Answer: Its MBC is 64 µg/mL (≈ 25.7 µM).

Question: What about the MIC ([5]; KP-12) of the same compound?
Answer: The MIC was 64 µg/mL (≈ 25.7 µM).

Question: And the MBC ([5]; KP-12)?
Answer: Its MBC is 64 µg/mL (≈ 25.7 µM).

Question: What about the MIC ([5]; KP-13) of the same compound?
Answer: Its MIC is 32 µg/mL (≈ 12.8 µM).

Question: What about the MBC ([5]; KP-13) of the same compound?
Answer: Its MBC is 32 µg/mL (≈ 12.8 µM).

Question: And the MIC ([5]; KP-14)?
Answer: The MIC was 256 µg/mL (≈ 103 µM).

Question: What about the MBC ([5]; KP-14) of the same compound?
Answer: The MBC was 256 µg/mL (≈ 103 µM).

Question: What about the MIC ([5]; KP-15) of the same compound?
Answer: The MIC was 512 µg/mL (≈ 205 µM).

Question: And the MBC ([5]; KP-15)?
Answer: The MBC was 512 µg/mL (≈ 205 µM).

Question: And the MIC50 [5, 10]?
Answer: The MIC50 was 64 µg/mL (≈ 25.7 µM).

Question: And the MIC90 [5, 10]?
Answer: The MIC90 was 256 µg/mL (≈ 103 µM).

Question: And the “Antimicrobial activity MIC” value ([6]; Control, salt concentration 0)?
Answer: The value was 4 µg/mL.

Question: What about the “Antimicrobial activity MIC” value ([6]; K11 2 mg/mL in FeCl3 1 µM, 1 h at 37°C, then MIC in CAMHB) of the same compound?
Answer: Its value is 4 µg/mL.

Question: What about the “Antimicrobial activity MIC” value ([6]; K11 2 mg/mL in FeCl3 4 µM, 1 h at 37°C, then MIC in CAMHB) of the same compound?
Answer: The value was 4 µg/mL.

Question: What about the “Antimicrobial activity MIC” value ([6]; K11 2 mg/mL in FeCl3 8 µM, 1 h at 37°C, then MIC in CAMHB) of the same compound?
Answer: Its value is 4 µg/mL.

Question: And the “Antimicrobial activity MIC” value ([6]; K11 2 mg/mL in MgCl2 0.5 mM, 1 h at 37°C, then MIC in CAMHB)?
Answer: The value was 4 µg/mL.

Question: What about the “Antimicrobial activity MIC” value ([6]; K11 2 mg/mL in MgCl2 1 mM, 1 h at 37°C, then MIC in CAMHB) of the same compound?
Answer: Its value is 4 µg/mL.

Question: What about the “Antimicrobial activity MIC” value ([6]; K11 2 mg/mL in MgCl2 2 mM, 1 h at 37°C, then MIC in CAMHB) of the same compound?
Answer: Its value is 8 µg/mL.

Question: What about the “Antimicrobial activity MIC” value ([6]; K11 2 mg/mL in NaCl 100 mM, 1 h at 37°C, then MIC in CAMHB) of the same compound?
Answer: The value was 4 µg/mL.

Question: And the “Antimicrobial activity MIC” value ([6]; K11 2 mg/mL in NaCl 150 mM, 1 h at 37°C, then MIC in CAMHB)?
Answer: The value was 4 µg/mL.

Question: What about the “Antimicrobial activity MIC” value ([6]; K11 2 mg/mL in NaCl 200 mM, 1 h at 37°C, then MIC in CAMHB) of the same compound?
Answer: The value was 4 µg/mL.

Question: And the MIC ([7]; broth microdilution in CAMHB, 20-24 h at 37°C)?
Answer: The MIC was 4 µg/mL (≈ 1.6 µM).

Question: And the MBC ([7]; wells with no visible growth plated on MHA, 37°C, kills at least 99.9% of inoculum)?
Answer: Its MBC is 4 µg/mL (≈ 1.6 µM).
